Consider 10 compounds from Sander's compilation of Henry's law constants (doi:10.1021/j100876a049).

The nature of the series: Henry solubility constant Hcp at 298.15 K (mol/(m3 Pa)). To be noted: reference: McAuliffe (1966).
For `C=CCC` [1-butene], the “Henry solubility constant Hcp” value is 4e-05.

For the compound `C#CCC` [1-butyne], the “Henry solubility constant Hcp” value was determined as 0.00054.

Regarding `CC(C)C` [2-methylpropane], the “Henry solubility constant Hcp” value was determined as 8.5e-06.

Turning to `C=C(C)C` [2-methylpropene], the “Henry solubility constant Hcp” value amounted to 4.8e-05.

Regarding `C=CC(C)C` [3-methyl-1-butene], the “Henry solubility constant Hcp” value came out at 1.9e-05.

Consider `CCCC` [butane], for which the “Henry solubility constant Hcp” value stood at 1.1e-05.

For `CC(C)(C)C` [dimethylpropane], the “Henry solubility constant Hcp” value was determined as 4.7e-06.

`C=C` [ethene]: the “Henry solubility constant Hcp” value was 4.7e-05.

`C=CC` [propene]: the “Henry solubility constant Hcp” value worked out at 4.8e-05.

For the compound `C#CC` [propyne], the “Henry solubility constant Hcp” value came out at 0.00092.
